# Results published in patent US8080657B2, “Compounds of reverse turn mimetics and the use thereof” (Choongwae Pharma Corporation, priority 2008, dated 2011).
# Where two headings read alike, the source gives them in different places.
# System: Wnt signaling
# Assay: TopFlash reporter gene bioassay in SW480 cells
# Type: cell-based
# Settings: inhibition of Wnt signaling, read-out: RGA, IC50 (μM) TopF
# [1] = Homo sapiens, SW480, TopFlash reporter gene assay
IC50 [1] [µM],IC50 (TopFlash reporter gene assay) [µM],SMILES
7.05 ± 0.87,,C=CCN1CC(=O)N2[C@@H](Cc3ccc(O)cc3)C(=O)N(Cc3cccc(OC)c3Oc3cccc(F)c3)C[C@@H]2N1C(=O)NCc1ccccc1 [compound 252]
7.1 ± 0.99,,C=CCN1CC(=O)N2[C@@H](Cc3ccc(O)cc3)C(=O)N(Cc3c[nH]c4ccc(OC)cc34)C[C@@H]2N1C(=O)NCc1ccccc1 [compound 253]
7.13 ± 1.35,,C=CCN1CC(=O)N2[C@@H](Cc3ccc(O)cc3)C(=O)N(Cc3ccc(N)c([N+](=O)[O-])c3)C[C@@H]2N1C(=O)NCc1ccccc1 [compound 254]
7.17 ± 1.33,,C=CCN1CC(=O)N2[C@@H](Cc3ccc(O)cc3)C(=O)N(Cc3ccc(F)c4scnc34)C[C@@H]2N1C(=O)NCc1ccc(C#N)cc1 [compound 255]
7.2 ± 1.06,,C=CCN1CC(=O)N2[C@@H](Cc3ccc(O)cc3)C(=O)N(Cc3cccc(C(=O)NCCO)c3)C[C@@H]2N1C(=O)NCc1ccccc1 [compound 256]
7.26 ± 1.3,,C=CCN1CC(=O)N2[C@@H](Cc3ccc(O)cc3)C(=O)N(Cc3cccnc3-c3cccc(C#N)c3)C[C@@H]2N1C(=O)NCc1ccccc1 [compound 257]
7.51 ± 2.1,,C=CCN1CC(=O)N2[C@@H](Cc3ccc(O)cc3)C(=O)N(Cc3cccc(C(=O)NC)c3[N+](=O)[O-])C[C@@H]2N1C(=O)NCc1ccccc1 [compound 258]
7.62 ± 1.89,,C=CCN1CC(=O)N2[C@@H](Cc3ccc(O)cc3)C(=O)N(Cc3ccc([N+](=O)[O-])c(O)c3)C[C@@H]2N1C(=O)NCc1ccccc1 [compound 259]
8.43 ± 2.07,,C=CCN1CC(=O)N2[C@@H](Cc3ccc(O)cc3)C(=O)N(Cc3cccc(C(=O)Nc4cc[nH]n4)c3)C[C@@H]2N1C(=O)NCc1ccccc1 [compound 260]
8.48 ± 0.9,,C=CCN1CC(=O)N2[C@@H](Cc3ccc(O)cc3)C(=O)N(Cc3cccc(-c4ccc(S(C)(=O)=O)cc4)n3)C[C@@H]2N1C(=O)NCc1ccccc1 [compound 261]
8.48 ± 1.37,,C=CCN1CC(=O)N2[C@@H](Cc3ccc(O)cc3)C(=O)N(Cc3cccc(OC)c3OC)C[C@@H]2N1C(=O)NCc1ccccn1 [compound 262]
9.09 ± 0.67,,C=CCN1CC(=O)N2[C@@H](Cc3ccc(O)cc3)C(=O)N(CC3=CS(=O)(=O)c4ccccc43)C[C@@H]2N1C(=O)NCc1ccccc1 [compound 263]
9.11 ± 1.82,,C=CCN1CC(=O)N2[C@@H](Cc3ccc(O)cc3)C(=O)N(Cc3ccnc(N)n3)C[C@@H]2N1C(=O)NCc1ccccc1 [compound 264]
9.3 ± 0.53,,C=CCN1CC(=O)N2[C@@H](Cc3ccc(O)cc3)C(=O)N(Cc3cccc(C(=O)NO)c3)C[C@@H]2N1C(=O)NCc1ccccc1 [compound 265]
,9.43 ± 1.65,C=CCN1CC(=O)N2[C@@H](Cc3ccc(O)cc3)C(=O)N(Cc3cccc(C(=O)NC4CCCC4)c3)C[C@@H]2N1C(=O)NCc1ccccc1 [compound 266]
6.63 ± 1.35,,C=CCN1CC(=O)N2[C@@H](Cc3ccc(O)cc3)C(=O)N(Cc3cccc4c3ncn4CC(N)=O)C[C@@H]2N1C(=O)NCc1ccccc1 [compound 267]
